# Assay results reported in patent US10209240B2, “Predicting human developmental toxicity of pharmaceuticals using human stem-like cells and metabolomic ratios” (STEMINA BIOMARKER DISCOVERY, INC., priority 2012, dated 2019).
# Where two headings read alike, the source gives them in different places.
# Legend:
# rat whole embryo = settings: training and test set; weak/moderate and strong teratogens both labeled teratogen; cited from earlier work
# [1] = system: mouse embryonic stem cell; settings: training and test set; weak/moderate and strong teratogens both labeled teratogen; cited from earlier work
# Rabbit = settings: training and test set; cited from earlier work
# [2] = therapeutic peak plasma in vivo concentration, human, cited from earlier work
# hES cells [3] = test: devTOX computational model predictions (Version 2.0, Version 2.1) from hES cell metabolomics; type: cell-based, human; settings: single dose per treatment (Dose column)
# Description: The selection process weighted the predictive capacity of a feature, overall intensity, and peak shape to identify very well behaved features/metabolites that could be measured by targeted LC-MS or even by other detection systems.
# (§1) This simplified model is based on a ratio of the reference treatment (DMSO) normalized values of ADMA and cystine.
# Humans = settings: cited from earlier work; for Humans (known human developmental toxicity): training and test set; for Known Effect: validation and test set treatments of Example 2
# [4] = summarized from TERIS and Briggs et al. 2011, cited from earlier work
# WA09 hES cells [5] = system: WA09 hES cells
# Rodent = settings: training and test set; cited from earlier work
# hES cells [6] = test: ADMA/cystine ratio simplified predictive model in hES cell spent media; type: cell-based, human; settings: single dose per treatment; ratios less than 0.9 indicate teratogenicity
# Description: as §1
# The X-axis is the reference normalized ratio of ADMA/Cystine. The y-axis is the training set of pharmaceuticals. Grey color with triangle glyphs represents teratogens and black color with circle glyphs represents non-teratogens. Each glyph point represents the media value of an independent experimental block (6 reps per block). The crosshair glyphs mark the sample medians. In FIG. 9, grey vertical line is threshold of teratogenicity, grey horizontal lines are the median absolute deviations, and black vertical line designates 1.0. The arrows at the bottom indicate the values used for differentiation of teratogens and nonteratogens, utilizing a cut off of 0.9 (grey line).
# zebrafish = settings: training and test set; weak/moderate and strong teratogens both labeled teratogen; cited from earlier work
# WA09 hES cells [7] = test: Phase 2 targeted biomarker assay, ornithine/cystine ratio, 9-point dose response
# Outline: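 WA09 hES cells (≤ passage 40), plated as single cells at 100,000/well on Matrigel in mTeSR1 with 10 μM Y27632, dosed 24 h later with nine 3-fold dilutions, 0.04–300 μM, 0.1% DMSO, for 72 h. Final-24 h spent medium, spiked with 13C6-arginine and filtered (<10 kDa), analysed by LC-HRMS; viability by CellTiter-Fluor.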
# [8] = Solubility in DMSO for stock solutions
# Experimental: Phase I hES Cell Compound Exposure. hES cells were treated with a test compound at a single concentration equivalent to the compound's published therapeutic Cmax. […] This was done to ensure that enough cells were present at the time of sample collection to provide a signal for LC-HRMS analysis. For test compound exposure, all compound stock solutions, with the exception of valproic acid, were made with DMSO (Sigma-Aldrich). […] Each 96-well plate included media controls with and without test compound, 0.1% DMSO solvent control cells and cells exposed to a single concentration of eight different test compounds (FIG. 1A). Media controls were included on each plate to assess the impact of test compound on the sample matrix. hES cells were exposed to the test compound for 72 hours, with media and test compound replacement every 24 hours. Cells were monitored throughout the treatment period to ensure that no differentiation was occurring. After 72 hours of treatment, the spent media from the final 24-hour treatment period was collected and added to acetonitrile (Sigma-Aldrich, final acetonitrile concentration 40%), to halt metabolic processes and precipitate proteins from solution. Individual wells from each 96-well plate were collected and analyzed as separate samples. These samples were then stored at −80° C. until prepared for LC-HRMS analysis. Cell viability was assessed using the CellTiter-Fluor Cell Viability Assay as per the manufacturer's instructions (Promega, Madison, Wis.). […]
# Phase 2 hES Cell Compound Exposure. […] Cell viability was assessed using the CellTiter-Fluor Cell Viability Assay. A quality control step was included with criteria that the CV of the measured viability RFU of the DMSO control cells could not exceed 10% for a plate to undergo LC-HRMS analysis. […]
# [9] = training set, teratogenicity potential scored against therapeutic Cmax
Compound,O/C Ratio Prediction (WA09 hES cells [7]),Targeted Biomarker Assay prediction (WA09 hES cells [7]),WEC prediction (rat whole embryo),mEST prediction [1],Rabbit prediction (Rabbit),Cmax ([2]; training set),Model Predictions Version 2.0 (hES cells [3]),Model Predictions Version 2.1 (hES cells [3]),Humans (known human developmental toxicity) (Humans),Known Effect (Humans),Preclinical in vivo and known human developmental effects ([4]; training set compounds),Viability Prediction (WA09 hES cells [5]),"Teratogenicity Potential (μM) Cell Viability (WA09 hES cells [5]; human, 72 h)",Rodent prediction (Rodent),Model Predictions ADMA/Cystine (hES cells [6]),ZET prediction (zebrafish),"Change in the o/c ratio, also relative to cytotoxicity (WA09 hES cells [7])","Teratogenicity Potential (μM) O/C Ratio (WA09 hES cells [7]; human, 72 h)",also measured
O=c1[nH]cc(F)c(=O)[nH]1 [5-Fluorouracil],TER,TER,"TER^f,k","TER^b,i",TER,4250 nM,Ter,Ter,TER,Ter,"Craniofacial, central",TER,2 µM,TER,Ter,TER^c,change in o/c ratio that is directly correlated with a decrease in cell viability,3 µM,"Cytotoxicity at the Cmax exposure level (WA09 hES cells [5]; human, 72 h): greater than 30%"
CN(Cc1cnc2nc(N)nc(N)c2n1)c1ccc(C(=O)N[C@@H](CCC(=O)O)C(=O)O)cc1 [Methotrexate],TER,TER,TER^f,"TER^b,i",TER,200 nM,Ter,Ter,TER,Ter,"Craniofacial, limb, skeletal,",TER,0.05 µM,TER,Ter,TER^d,,0.05 µM,"Cytotoxicity at the Cmax exposure level (WA09 hES cells [5]; human, 72 h): greater than 30%"
CC1(C)S[C@@H]2[C@H](NC(=O)Cc3ccccc3)C(=O)N2[C@H]1C(=O)O [Penicillin G],,,"NON^f,j","NON^b,i",NON,135000 nM,Non,Non,NON,Non,None,,,NON,Non,"NON^c,e,n",,,"Teratogenicity Potential (μM) Cell Viability (WA09 hES cells [5]; training set, interpolated concentration where cell viability dose response curve crosses teratogenicity threshold 0.88, 72 hours): >300 µM; Viability Prediction (WA09 hES cells [5]; [9]): NON; Targeted Biomarker Assay prediction (WA09 hES cells [7]; training and test set, o/c ratio scored against therapeutic Cmax): NON; Teratogenicity Potential (μM) O/C Ratio (WA09 hES cells [7]; training set, interpolated concentration where o/c ratio dose response curve crosses teratogenicity threshold 0.88, 72 hours): >300 µM; O/C Ratio Prediction (WA09 hES cells [7]; [9]): NON"
CC1=C(/C=C/C(C)=C/C=C/C(C)=C/CO)C(C)(C)CCC1 [Retinol],NON,NON,TER^q,NON^p,TER,2400 nM,Ter,Non,NON,Non,Low Doses: None; High,NON,42.8 µM,TER,Non,"TER^c,n",o/c ratio is directly correlated with cell death,42.2 µM,"Dose shown to cause malformations (Humans; experimental animals and humans, Teratology Society 1987): > 25,000 IU/day; Dose without adverse effect on the developing fetus (FDA maximum RDA) (Humans; human pregnancy): ≤ 8,000 IU; Classification by o/c ratio in the targeted biomarker assay (WA09 hES cells [7]): correctly classify; Exposure level of o/c ratio change/cell death relative to levels normally encountered by humans (WA09 hES cells [7]; human, 72 h): ~20 times"

# The next lines start with results.
O/C Ratio Prediction (WA09 hES cells [7]),Targeted Biomarker Assay prediction (WA09 hES cells [7]),Compound,WEC prediction (rat whole embryo),mEST prediction [1],Rabbit prediction (Rabbit),Cmax ([2]; training set),Model Predictions Version 2.0 (hES cells [3]),Model Predictions Version 2.1 (hES cells [3]),Humans (known human developmental toxicity) (Humans),Known Effect (Humans),Preclinical in vivo and known human developmental effects ([4]; training set compounds),Viability Prediction (WA09 hES cells [5]),"Teratogenicity Potential (μM) Cell Viability (WA09 hES cells [5]; human, 72 h)",Rodent prediction (Rodent),Model Predictions ADMA/Cystine (hES cells [6]),ZET prediction (zebrafish),"Change in the o/c ratio, also relative to cytotoxicity (WA09 hES cells [7])","Teratogenicity Potential (μM) O/C Ratio (WA09 hES cells [7]; human, 72 h)",also measured
,NON,Nc1nc2ncc(CNc3ccc(C(=O)N[C@@H](CCC(=O)O)C(=O)O)cc3)nc2c(=O)[nH]1 [Folic Acid],,,,35 nM,Ter,Non,NON,,,NON,>300 µM,,Non,,,,Solubility in DMSO (words) [8]: completely insoluble in DMSO
NON,NON,NNC(=O)c1ccncc1 [Isoniazid],"TER^f,j","NON^b,i",NON,51000 nM,Ter,Ter,NON,Non,None,NON,>300 µM,NON,Non,"NON^c,n",,165.4 µM,
NON,NON,CCN(CC)CCNC(=O)c1cc(Cl)c(N)cc1OC [Metoclopramide],"NON^f,j","TER^i,m",NON,,Ter,Non,NON,Non,,NON,>300 µM,NON,Non,NON^d,,190.8 µM,Cmax ([2]; test set): 150 nM; Preclinical in vivo and known human developmental effects ([4]; test set compounds): None
NON,NON,O=C1NS(=O)(=O)c2ccccc21 [Saccharin],NON^j,"NON^b,i",NON,1400 nM,Non,Non,NON,Non,None,NON,>300 µM,NON,Non,"NON^c,e",no change in the o/c ratio or viability,>300 µM,
